# What was measured:
# [1] = Mouse glaucoma model (intravitreal TGF-β2 overexpression adenovirus vector), intraocular pressure; type: in vivo, Balb/cJ mice; conditions: 40 mg/kg intraperitoneal once daily
# Procedure: 1. Salidroside powder was dissolved in normal saline to make 40 mg/kg salidroside solution. 2. Male Balb/cJ mice 8 to 12 weeks old and weighted about […] were used. The selected mice met the requirement of the first-level animal standards. Mice and feed were provided by the Experimental Animal Center of the Ninth People's Hospital, affiliated with Shanghai Jiaotong University School of Medicine. Vivarium temperature was controlled between 15 to 20° C., and relative humidity was 55 to 75%, with 12h light. Food and drinking water were on an ad libitum basis. Mice that met the inclusion criteria were selected: (1) no eye disease; (2) pupillary light reflexes in both eyes in response to direct and indirect light were normal. 4. Intraocular pressure in both the left and the right eye of each conscious mouse was measured and recorded. 5. Weight measurements of each mouse were taken. 4% chloral hydrate was injected to anaesthetize mice at a dose of 10 μL/g body weight; 6. Mouse glaucoma model: 3 μL TGF-β2 overexpression adenovirus vector (3×10^7 pfu/μL) was injected into the vitreous chamber to induce ocular hypertension. […] On the day of adenovirus vector intravitreal injection, mouse intraocular pressure was measured once. Intraocular pressure was measured again on the next day and subsequent selected days to avoid damage to the cornea caused by frequent measurement. […]
# [2] = system: laminin (LN), collagen IV (Col-IV) and fibronectin (FN) mRNA in trabecular meshwork cells; assay: qRT-PCR of extracellular matrix expression in dexamethasone-induced normal human trabecular meshwork cells; type: cell-based
# Procedure: Normal Trabecular Meshwork cells (NTM) were cultured with F12 containing 10% fetal bovine serum (FBS). When the normal human trabecular meshwork cells were 75%-80% confluent, cells were digested with pancreatic enzymes and planted into a 6-well plate with 2 mL culture media per well.
# Normal human normal trabecular meshwork cells were used as a untreated control group. Normal human trabecular meshwork cells with dexamethasone added were used as the experimental control group. Normal human trabecular meshwork cells with dexamethasone and different concentrations of salidroside added were used as the experimental groups (The concentration of dexamethasone used in the experimental control group and the experimental groups was 10^−7 mol/L. The concentrations of salidroside were 1, 3, 10, 30, 100 μmol/L, respectively). The trabecular meshwork cells were cultured for 0, 3, 6, 12, 24, 48 h.
# Primer sequences for laminin (LN), collagen IV (Col-IV) and fibronectin (FN) mRNA were designed. Messenger RNA levels of LN, Col-IV, and FN were detected with qRT-PCR. Anti-LN, anti-Col-IV, and anti-FN antibodies were used to detect protein expression of the trabecular meshwork extracellular matrix protein in immunocytochemistry.
# FIGS. 1-3 show the effect of salidroside detected by the qRT-PCR on the extracellular matrix proteins of human trabecular meshwork induced by the dexamethasone. […]
# [3] = Rabbit glaucoma model (1% dexamethasone eye drops), intraocular pressure; type: in vivo, New Zealand white rabbit; conditions: one week; for Average intraocular pressure, Left eye: 3 times a day, two drops, 4 h after treatment; for IOP reduction rate: left eye vs right eye; for Average intraocular pressure, Right eye: right eye as control
# Procedure: 1. Salidroside powder was dissolved in normal saline to prepare salidroside eye drops at the concentrations of 20 μM, 25 μM, 30 μM.
# 2. Fitly healthy, adult New Zealand white rabbit with body weight between 2.0 to 3.0 kg, consisting of equal numbers of male and female, were chosen for study. Rabbit glaucoma model was established by dosing the animals with 1% dexamethasone eye drops on both eyes 5 times a day for a total induction time of 3 weeks. Intraocular pressure was monitored starting from week 2. Glaucoma model was considered successfully established when intraocular pressure, measured at the same time of the day, was above 22 mmHg for a week. Glaucoma model was successful established on all 50 rabbits with the average intraocular pressure of 26.07±2.03 mmHg (n=100 eyes). Rabbits were randomly divided into 5 groups of 10: the normal control group, positive drug group (Travatan®, 0.004% travoprost eye drops), and three salidroside groups (20 μM, 25 μM, 30 μM salidroside).
# Positive drug group was treated with Travatan® in the left eye, three times a day, two drops each time. Intraocular pressure was measured 4 hours after treatment. Treatment lasted for two weeks. The three salidroside groups were treated with salidroside eye drops three times a day, two drops each time. Intraocular pressure was measured 4 hours after treatment. Treatment lasted for two weeks. The normal control group received eye drops in both eyes three times a day, two drops each time. Intraocular pressure was measured 4 hours after receiving eye drops. Eye drops were administered for 2 weeks.
# One week after the start of experiment, the average pressure for each eye after each measurement in each group is shown in Table 1.
smiles,measurement,setting,value
"OC[C@H]1O[C@@H](OCCc2ccc(O)cc2)[C@H](O)[C@@H](O)[C@@H]1O [Salidroside, 2-(4-HYDROXYPHENYL) ETHYL-BETA-D-GLUCOPYRANOSIDE]",intraocular pressure vs glaucoma control group,"[1]; salidroside intervention group (treated immediately after vector injection), 11th day after initiation",statistically significantly lowered
same,intraocular pressure vs glaucoma control group,"[1]; salidroside treatment group (treated after IOP increased and stabilized), 18th day after initiation",statistically significantly lowered
same,"expression level of TGF beta, FN, COL-IV and LN","[2]; applicant's previous studies, dexamethasone-induced cells, after intervention of salidroside",decreases
same,"extracellular matrix proteins of the trabecular meshwork (FN, COL-IV, LN; qRT-PCR)","[2]; dexamethasone 10^-7 mol/L plus salidroside 1, 3, 10, 30, 100 μmol/L, normal human trabecular meshwork cells",reduced
same,"Average intraocular pressure, Left eye",[3]; 20 μM eye drops,15.57 ± 1.52 mmHg
same,IOP reduction rate,[3]; 20 μM eye drops,30.98%
same,"Average intraocular pressure, Right eye",[3]; 20 μM group,22.56 ± 1.72 mmHg
same,"Average intraocular pressure, Left eye",[3]; 25 μM eye drops,15.07 ± 1.19 mmHg
same,IOP reduction rate,[3]; 25 μM eye drops,34.56%
same,"Average intraocular pressure, Right eye",[3]; 25 μM group,23.03 ± 1.02 mmHg
same,"Average intraocular pressure, Left eye",[3]; 30 μM eye drops,14.37 ± 1.54 mmHg
same,IOP reduction rate,[3]; 30 μM eye drops,37.19%
same,"Average intraocular pressure, Right eye",[3]; 30 μM group,22.88 ± 1.09 mmHg
same,average intraocular pressure in the left eye compared with the corresponding right eye as a control,[3]; P<0.01,significant lowered
same,IOP-lowering effect compared with the Travatan group,"[3]; salidroside groups 20, 25, 30 μM eye drops",better than that of the Travatan® group

# — US20210260091A1, “USE OF SALIDROSIDE AND DERIVATIVE THEREOF IN PREPARATION OF INHIBITOR MEDICAMENT FOR DISEASES OF OPHTHALMIC FIBROSIS CAUSED BY ABNORMALITIES OF EXTRACELLULAR MATRIX PROTEINS” (priority 2018, published 2021)
